Results from ChEMBL document CHEMBL1201861, “Genomics of Drug Sensitity in Cancer screening data, Wellcome Trust Sanger Institute”.

Legend:
Assay in all cases: cells
CP50-MEL-B = assay type: functional, cell-based; conditions: Homo sapiens;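 further: growth inhibition of the human cell line, measured with a cell viability read-out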
Description: SANGER: Inhibition of human CP50-MEL-B cell growth in a cell viability assay.

MKN-45 = assay type: functional, cell-based; conditions: Homo sapiens;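 further: growth inhibition of human MKN-45 cells, measured with a cell viability assay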
Description: SANGER: Inhibition of human MKN45 cell growth in a cell viability assay.

RT-112 = assay type: functional, cell-based; conditions: Homo sapiens
Description: SANGER: Inhibition of human RT-112 cell growth in a cell viability assay.

MKN-1 = assay type: functional, cell-based; conditions: Homo sapiens;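 further: growth inhibition of human MKN1 cells, read out by a cell viability measurement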
Description: SANGER: Inhibition of human MKN1 cell growth in a cell viability assay.

NCI-H630 = assay type: functional, cell-based; conditions: Homo sapiens;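 further: growth inhibition of NCI-H630 cells, read out with a cell viability assay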
Description: SANGER: Inhibition of human NCI-H630 cell growth in a cell viability assay.

CAL-120 = assay type: functional, cell-based; conditions: Homo sapiens;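 further: cell growth inhibition, read out as cell viability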
Description: SANGER: Inhibition of human CAL-120 cell growth in a cell viability assay.

HCC1395 = assay type: functional, cell-based; conditions: Homo sapiens;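 further: growth inhibition of HCC1395 cells, read out by a cell viability assay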
Description: SANGER: Inhibition of human HCC1395 cell growth in a cell viability assay.

NCI-H1651 = assay type: functional, cell-based; conditions: Homo sapiens;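 further: Read-out is a cell viability assay, with IC50 expressing inhibition of NCI-H1651 cell growth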
Description: SANGER: Inhibition of human NCI-H1651 cell growth in a cell viability assay.

BFTC-909 = assay type: functional, cell-based; conditions: Homo sapiens
Description: SANGER: Inhibition of human BFTC-909 cell growth in a cell viability assay.

ASPC1 = assay type: functional, cell-based; conditions: Homo sapiens;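 further: growth inhibition of AsPC-1 cells, read out with a cell viability assay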
Description: SANGER: Inhibition of human AsPC-1 cell growth in a cell viability assay.

CAL-62 = assay type: functional, cell-based; conditions: Homo sapiens;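 further: growth inhibition of CAL-62 cells, read out with a cell viability assay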
Description: SANGER: Inhibition of human CAL-62 cell growth in a cell viability assay.

NY = assay type: functional, cell-based; conditions: Homo sapiens
Description: SANGER: Inhibition of human NY cell growth in a cell viability assay.

SiHa = assay type: functional, cell-based; conditions: Homo sapiens;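 further: Viability-based readout of growth inhibition in SiHa cells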
Description: SANGER: Inhibition of human SiHa cell growth in a cell viability assay.

NCI-H2170 = assay type: functional, cell-based; conditions: Homo sapiens;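 further: cell viability assay measuring growth inhibition of human NCI-H2170 cancer cells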
Description: SANGER: Inhibition of human NCI-H2170 cell growth in a cell viability assay.

MDA-MB-157 = assay type: functional, cell-based; conditions: Homo sapiens
Description: SANGER: Inhibition of human MDA-MB-157 cell growth in a cell viability assay.

NB12 = assay type: functional, cell-based; conditions: Homo sapiens;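 further: growth inhibition of human NB12 cells, read out by a cell viability assay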
Description: SANGER: Inhibition of human NB12 cell growth in a cell viability assay.

OAW-42 = assay type: functional, cell-based; conditions: Homo sapiens;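 further: growth inhibition of OAW-42 cells, read out with a cell viability assay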
Description: SANGER: Inhibition of human OAW-42 cell growth in a cell viability assay.

S-117 = assay type: functional, cell-based; conditions: Homo sapiens
Description: SANGER: Inhibition of human S-117 cell growth in a cell viability assay.

SW1088 = assay type: functional, cell-based; conditions: Homo sapiens;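 further: growth inhibition of human SW1088 cells, read out by a cell viability assay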
Description: SANGER: Inhibition of human SW1088 cell growth in a cell viability assay.

CAL-54 = assay type: functional, cell-based; conditions: Homo sapiens;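 further: growth inhibition of CAL-54 cells, read out by a viability measurement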
Description: SANGER: Inhibition of human CAL-54 cell growth in a cell viability assay.

NCI-H1793 = assay type: functional, cell-based; conditions: Homo sapiens;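 further: cell growth inhibition, read out by a cell viability assay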
Description: SANGER: Inhibition of human NCI-H1793 cell growth in a cell viability assay.

MDA-MB-175-VII = assay type: functional, cell-based; conditions: Homo sapiens
G-401 = assay type: functional, cell-based; conditions: Homo sapiens
Description: SANGER: Inhibition of human G-401 cell growth in a cell viability assay.

PANC-03-27 = assay type: functional, cell-based; conditions: Homo sapiens
Description: SANGER: Inhibition of human PANC-03-27 cell growth in a cell viability assay.

NCI-H650 = assay type: functional, cell-based; conditions: Homo sapiens;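 further: growth inhibition of NCI-H650 cells, read out by a viability assay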
Description: SANGER: Inhibition of human NCI-H650 cell growth in a cell viability assay.

COLO-680N = assay type: functional, cell-based; conditions: Homo sapiens;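 further: cell viability assay used to measure inhibition of COLO-680N cell growth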
Description: SANGER: Inhibition of human COLO-680N cell growth in a cell viability assay.

AN3-CA = assay type: functional, cell-based; conditions: Homo sapiens;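 further: growth inhibition of human AN3-CA cells measured by a cell viability assay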
Description: SANGER: Inhibition of human AN3-CA cell growth in a cell viability assay.

MFH-ino = assay type: functional, cell-based, Homo sapiens; conditions: Homo sapiens, MFH-ino;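 further: growth inhibition of human MFH-ino cells, read out by a cell viability assay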
Description: SANGER: Inhibition of human MFH-ino cell growth in a cell viability assay.

D-542MG = assay type: functional, cell-based; conditions: Homo sapiens
Description: SANGER: Inhibition of human D-542MG cell growth in a cell viability assay.

IGROV-1 = assay type: functional, cell-based; conditions: Homo sapiens;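 further: reduction of IGROV-1 cell growth, read out with a viability assay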
Description: SANGER: Inhibition of human IGROV-1 cell growth in a cell viability assay.

ChaGo-K-1 = assay type: functional, cell-based; conditions: Homo sapiens;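 further: growth inhibition of ChaGo-K-1 cells, read out with a cell viability assay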
Description: SANGER: Inhibition of human ChaGo-K-1 cell growth in a cell viability assay.

RO82-W-1 = assay type: functional, cell-based; conditions: Homo sapiens;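 further: growth inhibition of human RO82-W-1 cells, measured with a cell viability assay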
Description: SANGER: Inhibition of human RO82-W-1 cell growth in a cell viability assay.

SNU-387 = assay type: functional, cell-based; conditions: Homo sapiens
Description: SANGER: Inhibition of human SNU-387 cell growth in a cell viability assay.

NCI-H2052 = assay type: functional, cell-based; conditions: Homo sapiens;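 further: growth inhibition of NCI-H2052 cells, read out with a cell viability assay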
Description: SANGER: Inhibition of human NCI-H2052 cell growth in a cell viability assay.

HCC1937 = assay type: functional, cell-based; conditions: Homo sapiens;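 further: growth inhibition measured with a cell viability read-out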
Description: SANGER: Inhibition of human HCC1937 cell growth in a cell viability assay.

SW1463 = assay type: functional, cell-based; conditions: Homo sapiens;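 further: growth inhibition of SW1463 cells, determined with a cell viability assay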
Description: SANGER: Inhibition of human SW1463 cell growth in a cell viability assay.

NCI-H1993 = assay type: functional, cell-based; conditions: Homo sapiens;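 further: growth inhibition of the cancer cell line, assessed with a cell viability assay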
Description: SANGER: Inhibition of human NCI-H1993 cell growth in a cell viability assay.

U2OS = assay type: functional, cell-based, U-2-OS; conditions: Homo sapiens;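 further: growth inhibition of human U-2-OS cells, determined with a cell viability assay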
Description: SANGER: Inhibition of human U-2-OS cell growth in a cell viability assay.

DoTc2-4510 = assay type: functional, cell-based; conditions: Homo sapiens
LB373-MEL-D = assay type: functional, cell-based, Homo sapiens; conditions: Homo sapiens, LB373-MEL-D;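 further: growth inhibition of the cell line, read out in a cell viability assay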
Description: SANGER: Inhibition of human LB373-MEL-D cell growth in a cell viability assay.

M059J = assay type: functional, cell-based; conditions: Homo sapiens;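 further: growth inhibition of M059J cells, read out with a cell viability assay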
Description: SANGER: Inhibition of human M059J cell growth in a cell viability assay.

Hs-578T = assay type: functional, cell-based; conditions: Homo sapiens
Description: SANGER: Inhibition of human Hs-578-T cell growth in a cell viability assay.

NCI-H810 = assay type: functional, cell-based; conditions: Homo sapiens;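 further: IC50 reflects inhibition of cancer cell line growth, read out with a cell viability assay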
Description: SANGER: Inhibition of human NCI-H810 cell growth in a cell viability assay.

OVCAR-5 = assay type: functional, cell-based; conditions: Homo sapiens;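 further: growth inhibition of human OVCAR-5 cells, read out with a cell viability assay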
Description: SANGER: Inhibition of human OVCAR-5 cell growth in a cell viability assay.

HCC1806 = assay type: functional, cell-based; conditions: Homo sapiens;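 further: growth inhibition of the cancer cell line, determined with a cell viability assay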
Description: SANGER: Inhibition of human HCC1806 cell growth in a cell viability assay.

CN(NC(=O)CC(=O)NN(C)C(=S)c1ccccc1)C(=S)c1ccccc1 [ELESCLOMOL]
IC50 (CP50-MEL-B): 8.63 nM
IC50 (MKN-45): 28.7 nM
IC50 (RT-112): 14.2 nM
IC50 (MKN-1): 26 nM
IC50 (NCI-H630): > 200 nM
IC50 (CAL-120): 14 nM
IC50 (HCC1395): 8.47 nM
IC50 (NCI-H1651): 82.9 nM
IC50 (BFTC-909): 63.5 nM
IC50 (ASPC1): 37.7 nM
IC50 (CAL-62): 55.2 nM
IC50 (NY): 37.6 nM
IC50 (SiHa): 31.1 nM
IC50 (NCI-H2170): 28.8 nM
IC50 (MDA-MB-157): 2.92 nM
IC50 (NB12): 48 nM
IC50 (OAW-42): 81.6 nM
IC50 (S-117): 27.4 nM
IC50 (SW1088): 82.1 nM
IC50 (CAL-54): > 200 nM
IC50 (NCI-H1793): > 200 nM
IC50 (MDA-MB-175-VII): > 200 nM
IC50 (G-401): 5.43 nM
IC50 (PANC-03-27): 39.9 nM
IC50 (NCI-H650): 36.6 nM
IC50 (COLO-680N): 187 nM
IC50 (AN3-CA): 10.8 nM
IC50 (MFH-ino): > 200 nM
IC50 (D-542MG): > 200 nM
IC50 (IGROV-1): 104 nM
IC50 (ChaGo-K-1): 5.4 nM
IC50 (RO82-W-1): 26.2 nM
IC50 (SNU-387): 9.49 nM
IC50 (NCI-H2052): 63.3 nM
IC50 (HCC1937): 35.2 nM
IC50 (SW1463): > 200 nM
IC50 (NCI-H1993): > 200 nM
IC50 (U2OS): 19.7 nM
IC50 (DoTc2-4510): > 200 nM
IC50 (LB373-MEL-D): 14.7 nM
IC50 (M059J): 20.6 nM
IC50 (Hs-578T): 15.5 nM
IC50 (NCI-H810): 125 nM
IC50 (OVCAR-5): 1.83 nM
IC50 (HCC1806): 23.5 nM

O=C(NCCCNc1nc(Nc2cccc(NC(=O)N3CCCC3)c2)ncc1I)c1cccs1 [BX-795]
IC50 (CP50-MEL-B): > 5000 nM
IC50 (MKN-45): > 5000 nM
IC50 (RT-112): 4010 nM
IC50 (MKN-1): > 5000 nM
IC50 (NCI-H630): > 5000 nM
IC50 (CAL-120): 3890 nM
IC50 (HCC1395): > 5000 nM
IC50 (NCI-H1651): > 5000 nM
IC50 (BFTC-909): 4650 nM
IC50 (ASPC1): > 5000 nM
IC50 (CAL-62): > 5000 nM
IC50 (NY): > 5000 nM
IC50 (SiHa): > 5000 nM
IC50 (NCI-H2170): > 5000 nM
IC50 (MDA-MB-157): 1720 nM
IC50 (NB12): > 5000 nM
IC50 (OAW-42): 3660 nM
IC50 (S-117): > 5000 nM
IC50 (SW1088): 2000 nM
IC50 (CAL-54): > 5000 nM
IC50 (NCI-H1793): > 5000 nM
IC50 (MDA-MB-175-VII): > 5000 nM
IC50 (G-401): 2560 nM
IC50 (PANC-03-27): 4210 nM
IC50 (NCI-H650): 3400 nM
IC50 (COLO-680N): > 5000 nM
IC50 (AN3-CA): 1640 nM
IC50 (IGROV-1): > 5000 nM
IC50 (ChaGo-K-1): > 5000 nM
IC50 (RO82-W-1): 4340 nM
IC50 (SNU-387): 3810 nM
IC50 (NCI-H2052): > 5000 nM
IC50 (HCC1937): > 5000 nM
IC50 (SW1463): > 5000 nM
IC50 (NCI-H1993): > 5000 nM
IC50 (U2OS): 1590 nM
IC50 (DoTc2-4510): > 5000 nM
IC50 (M059J): 1380 nM
IC50 (Hs-578T): 2420 nM
IC50 (NCI-H810): 3900 nM
IC50 (OVCAR-5): 2280 nM
IC50 (HCC1806): > 5000 nM
